Where two headings read alike, the source gives them in different places.
What was measured:
[1] = molecular target: T1, IRAK4-HiBiT fusion protein (Homo sapiens, UniProt Q9NWZ3); experiment: Detection of HiBiT-IRAK4 proteolysis levels in K562 IRAK4-HiBiT cells (Nano-Glo HiBiT Lytic assay); format: cell-based
T1 construct: K562 from ATCC
T1 sequence (Q9NWZ3 1-460): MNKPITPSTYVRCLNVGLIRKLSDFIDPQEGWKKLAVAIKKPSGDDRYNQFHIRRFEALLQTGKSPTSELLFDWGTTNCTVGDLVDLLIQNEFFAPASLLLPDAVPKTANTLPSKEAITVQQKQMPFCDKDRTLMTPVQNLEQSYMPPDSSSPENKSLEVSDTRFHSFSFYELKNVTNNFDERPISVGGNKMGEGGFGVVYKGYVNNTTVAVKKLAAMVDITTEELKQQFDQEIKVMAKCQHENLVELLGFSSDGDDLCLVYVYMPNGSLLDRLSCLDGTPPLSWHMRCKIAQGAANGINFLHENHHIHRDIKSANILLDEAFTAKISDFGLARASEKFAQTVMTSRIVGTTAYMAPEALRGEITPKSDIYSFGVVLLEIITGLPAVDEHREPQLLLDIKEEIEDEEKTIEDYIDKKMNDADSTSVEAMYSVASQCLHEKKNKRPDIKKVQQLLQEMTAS
Procedure: Test Example 1 Detection of HiBiT-IRAK4 proteolysis levels in K562 IRAK4-HiBiT cells co-incubated with compounds of the present application • Reagents, devices, and consumables in experiments: • Nano-Glo Lytic Detection Assay, purchased from Promega; • EnVision, purchased from PerkinElmer; • Name of cell line: K562 IRAK4-HiBiT stable transformation cell strain (capable of stably expressing IRAK4-HiBiT fusion protein), constructed by Shanghai Bioduro Biologics Co., Ltd., where a K562 cell strain was purchased from ATCC. The culture medium is IMDM+10% FBS+1% P/S (volume percentage, where FBS is fetal bovine serum and P/S is Penicillin-Streptomycin, a 1:1 mixture of penicillin and streptomycin antibiotic solution (10,000 units/mL)).
Cell culture: K562 IRAK4-HiBiT cells were incubated at 37°C, and passaged every 2-3 d, with a seeding density of 200,000 cells/mL.
IRAK4-HiBiT proteolysis experiment: • Step 1: Cell seeding and treatment of compound • 1. A 10 mM compound mother liquor was prepared using DMSO, and a compound solution with a working concentration of 1,000 times (the highest working concentration is 10 µM, diluted 3.162 times, with a total of 10 concentration gradients) was prepared using Bravo automatic liquid processing platform. • 2. 40 nL of a compound working solution was transferred to a 384 well plate, and an equal volume of DMSO was added to positive control wells. • 3. 20 µL of a culture solution was added per well and shaken for 10 min. • 4.20 µL of a K562 IRAK4-HiBiT cell suspension was added per well (6,000 cells/well), and an equal volume of culture medium was added to negative control wells. • 5. The well plate was rotated at 1,000 rpm for 1 min. • 6. The cells were incubated in a 5% CO2 incubator at 37°C for 2 h or 6 h. • Step 2: HiBiT Lytic experiment • 1. The well plate was placed at room temperature to equilibrate for 30 min. • 2. 20 µL of Nano-Glo HiBiT Lytic reagent (trade name: Nano-Glo® HiBiT Lytic Detection Reagent) and the well plate was kept in the dark. • 3. The well plate was placed on an orbital shaker at 300 rpm for 5 min. • 4. The cells were incubated at room temperature for 10 min. • 5. The luminous value was read by Envision. • 6. Data was calculated and processed. Degradation degree%=(negative control - experimental well)/(negative control - positive control) * 100%. Using XL-fit software, a degradation curve was obtained by fitting using a 4 Parameter Logistic Model, and the values of Relative DC50 (nM) and Absolute DC50 (nM) were obtained.

[2] = system: LPS induced IL-6 release in human PBMC cells; experiment: Inhibition of LPS induced IL-6 release in human PBMC cells (IL-6 HTRF assay); format: cell-based; conditions: 2 h compound pre-incubation, LPS 5 ng/mL for 4 h, IL-6 in supernatant
Procedure: I. Recovery and seeding of PBMC, and treatment of compounds (human PBMC cells were purchased from Oricell, item number: Fpb003F)
• 1. Preparation of compounds Sample dilutions of a series of concentrations were obtained by dilution in DMSO using Bravo, and then 80 nL was transferred into a cell plate using ECHO. The final concentration of DMSO in the cell culture medium is 0.1%. • 2. Frozen cells were quickly thawed in a 37°C water bath and stirred continuously. • 3. 25 mL of fresh preheated culture medium was added into a 50 mL centrifuge tube, and then the cells were added dropwise. Then the cells were centrifuged at 2,000 rpm for 10 min. • 4. […] The total number of cells required was calculated based on cell concentration to perform the assay. 7×10e4 cells were added per well (70 µL). • 6. The cell plate was placed and incubated in a 5% CO2 incubator at 37°C for 2 h.
• 1. LPS: A stock solution (1 mg/mL) was diluted in dH2O, aliquoted, and stored at -80°C. • 2. 8-fold LPS was added per well (10 µl/well) (with a final concentration of 5 ng/mL). The cells were incubated in a 5% CO2 incubator at 37°C for 4 h. • 3. 70 µl of supernatant was collected per well using Bravo, and then IL-6 HTRF assay was performed. The supernatant may be stored at -80°C.
1. Preparation of standards and sample dilutions. 2. 16 µL of each sample was taken using Bravo and added to wells. Then 16 µL of each standard was taken and added to corresponding wells. 3.4 µL of a premixed IL6 antibody working solution was added to each of all wells. 4. The cell plate was sealed and incubated at room temperature for 2 h. 5.

[3] = Pharmacokinetic behavior in mice (plasma concentration by LC-MS/MS); format: in vivo; conditions: male ICR mice; for Vd: read-out: Vss
Procedure: (§1) Three healthy ICR mice (SPF grade, from Beijing Vital River Laboratory Animal Technology Co., Ltd.), male, weighing 18-25 g, were intravenously injected with a compound (1 mg/kg) at a volume of 5 mL/kg. The compound was prepared using 5% DMSO+10% Solutol+85% Saline (w/v), and the animals were not fasted before the experiment.
as §1, with “were intragastrically administered” for “were intravenously injected with”, “compound (5” for “compound (1”, “of 10” for “of 5”
Blood samples (about 0.05 mL each) were collected from the cheeks at 5 min, 15 min, 30 min, 1 h, 2 h, 4 h, 6 h, 8 h, and 24 h after intravenous administration, and at 5 min, 15 min, 30 min, 1 h, 2 h, 4 h, 6 h, 8 h, and 24 h after intragastrical administration, and anticoagulated with heparin sodium. Following collection, the blood samples were placed on ice and the plasma was centrifuged within 1 h (centrifugation conditions: 6,000 g, 3 min, 2 °C to 8°C). The concentration of the compounds in the plasma was determined by liquid chromatography tandem mass spectrometry. The plasma samples were stored in a -80°C freezer before analysis. With plasma concentration data at different time points, pharmacokinetic parameters were calculated by Phoenix WinNonlin8.2.0, and the results are shown in Table 4: Table 4

[4] = 2 h incubation, read-out: Absolute DC50
[5] = 2 h incubation, read-out: Relative DC50
[6] = mouse, plasma, po, Intragastric administration (5 mg/kg)
[7] = mouse, plasma, po, Intragastric administration (5 mg/kg), read-out: Cmax
[8] = mouse, plasma, Intravenous injection (1 mg/kg)
[9] = mouse, plasma, Intravenous injection (1 mg/kg), read-out: Cmax
[10] = Intragastric administration (5 mg/kg), 5 mg/kg
[11] = Intravenous injection (1 mg/kg), 1 mg/kg
[12] = Intragastric administration (5 mg/kg)
[13] = Intravenous injection (1 mg/kg)
[14] = 6 h incubation, read-out: Absolute DC50
[15] = 6 h incubation, read-out: Relative DC50

Row | SMILES | Dmax ([1]; 2 h incubation) [%] | DC50 [1, 4] [nM] | DC50 [1, 5] [nM] | IC50 [2] [nM] | AUC(0-t) [3, 6] [ng·h/mL] | bioavailability [3, 6] [%] | half-life [3, 6] [h] | Cmax [3, 7] [ng/mL] | AUC(0-t) [3, 8] [ng·h/mL] | clearance [3, 8] [mL/min/kg] | Cmax [3, 9] [ng/mL] | Vd [3, 8] [L/kg] | AUClast [3, 12] [ng·h/mL] | Cmax [3, 12] [ng/mL] | F% [3, 12] [%] | T1/2 [3, 12] [h] | AUClast [3, 13] [ng·h/mL] | CL [3, 13] [mL/min/kg] | Cmax [3, 13] [ng/mL] | Dmax ([1]; 6 h incubation) [%] | also measured
1 | CC(C)(O)c1cc2nn([C@H]3CC[C@H](CCN4CCC5(CC4)OC(=O)c4cc(C6CCC(=O)NC6=O)ccc45)CC3)cc2cc1NC(=O)c1cccc(C(F)(F)F)n1 (stereo partly drawn) [Compound 93] | 94 | 0.74 | 0.93 | 0.18 | 9150 | 29.5 | 4.19 | 844 | 6210 | 2.98 | 783 | 0.958 | – | – | – | – | – | – | – | – | –
2 | CC(C)(O)c1cc2nn([C@H]3CC[C@H](CCN4CCN5c6ccc(C7(C)CCC(=O)NC7=O)cc6OC[C@H]5C4)CC3)cc2cc1NC(=O)c1cccc(C(F)(F)F)n1 (single isomer, unassigned) [Compound 120-b-2] | 93 | 23.7 | 21.4 | 0.75 | – | – | – | – | – | – | – | – | – | – | – | – | – | – | – | – | AUClast [3, 10]: 24277 ng·h/mL; Cmax [3, 10]: 1790 ng/mL; F% [3, 10]: 98.6%; T1/2 [3, 10]: 9.45 h; AUClast [3, 11]: 4925 ng·h/mL; CL [3, 11]: 3.03 mL/min/kg; Cmax [3, 11]: 725 ng/mL; Vss [3, 11]: 1.80 L/kg
3 | CC(C)(O)c1cc2nn([C@H]3CC[C@H](CCN4CCN5c6ccc(C7CCC(=O)NC7=O)cc6OC[C@@H]5C4)CC3)cc2cc1NC(=O)c1cccc(C(F)(F)F)n1 (stereo partly drawn) [Compound 1-a] | 90 | 0.42 | 0.58 | 0.91 | – | – | – | – | – | – | – | – | 19336 | 1067 | 31.7 | 17.5 | 8794 | 1.25 | 832 | – | Vss [3, 13]: 1.64 L/kg
4 | CC(C)(O)c1cc2nn([C@H]3CC[C@H](CCN4CCN5c6c(F)cc(C7CCC(=O)NC7=O)cc6OCC5C4)CC3)cc2cc1NC(=O)c1cccc(C(F)(F)F)n1 (stereo partly drawn) [Compound 4] | 90 | 9.85 | 8.71 | 4.08 | 34200 | 60.1 | 14.8 | 2130 | 10500 | 1.27 | 1320 | 1.07 | – | – | – | – | – | – | – | – | –
5 | CC(C)(O)c1cc2nn([C@H]3CC[C@H](CCN4CCC5(CC4)OCc4cc(C6CCC(=O)NC6=O)ccc45)CC3)cc2cc1NC(=O)c1cccc(C(F)(F)F)n1 (stereo partly drawn) [Compound 47] | – | – | – | 0.52 | – | – | – | – | – | – | – | – | – | – | – | – | – | – | – | 93 | DC50 [1, 14]: 0.65 nM; DC50 [1, 15]: 0.54 nM
6 | COc1cc2nn([C@H]3CC[C@H](CCN4CCC5(CC4)OCc4cc(C6CCC(=O)NC6=O)ccc45)CC3)cc2cc1C(=O)Nc1cccc(C(F)(F)F)n1 (stereo partly drawn) [Compound 96] | – | – | – | 0.23 | 3640 | 35.4 | 14.7 | 239 | 2060 | 4.59 | 243 | 7.97 | – | – | – | – | – | – | – | 97 | DC50 [1, 14]: 0.48 nM; DC50 [1, 15]: 0.44 nM
7 | CC(C)(O)c1cc2nn([C@H]3CC[C@H](CCN4CCN5c6ccc(C7CCC(=O)NC7=O)cc6OC[C@H]5C4)CC3)cc2cc1NC(=O)c1cccc(C(F)(F)F)n1 (stereo partly drawn) [Compound 1-b] | 88 | 0.54 | 0.71 | 0.86 | – | – | – | – | – | – | – | – | 44547 | 2623 | 79.5 | 15.3 | 11208 | 1.0 | 1083 | – | Vss [3, 13]: 1.23 L/kg
8 | CN1C(=O)C2(CCN(CC[C@H]3CC[C@H](n4cc5cc(NC(=O)c6cccc(C(F)(F)F)n6)c(C(C)(C)O)cc5n4)CC3)CC2)c2ccc(C3CCC(=O)NC3=O)cc21 (stereo partly drawn) [Compound 121] | 92 | 14 | 10.8 | 0.1 | – | – | – | – | – | – | – | – | – | – | – | – | – | – | – | – | –
9 | CC(C)Oc1cc2nc([C@H]3CC[C@H](CCN4CCC5(CC4)OCc4cc(C6CCC(=O)NC6=O)ccc45)CC3)cn2cc1C(=O)Nc1cnn2cccnc12 (stereo partly drawn) [Compound 94] | – | – | – | 64.5 | – | – | – | – | – | – | – | – | – | – | – | – | – | – | – | 97 | DC50 [1, 14]: 3.82 nM; DC50 [1, 15]: 3.97 nM
10 | CC(C)(O)c1cc2nn([C@H]3CC[C@H](CCN4CCN5c6ccc(C7CCC(=O)NC7=O)cc6OCC5C4)CC3)cc2cc1NC(=O)c1cccc(C(F)(F)F)n1 (stereo partly drawn) [Compound 1] | – | – | – | 1.15 | – | – | – | – | – | – | – | – | 82491 | 5153 | 93.86 | 8.03 | 12937 | 0.905 | 1740 | 91.1 | DC50 ([1]; read-out: Absolute DC50, 6 h incubation): 0.61 nM; DC50 ([1]; read-out: Relative DC50, 6 h incubation): 0.46 nM; Vss [3, 13]: 1.05 L/kg

Source: patent EP4696691A1, “TRICYCLIC COMPOUND, AND PREPARATION METHOD THEREFOR AND USE THEREOF” (Shanghai Huilun Pharmaceutical Co., Ltd., priority 2023, dated 2024)
